Reference: paper PMC12136037, “Type II kinase inhibitors that target Parkinson’s disease–associated LRRK2” (Science Advances, 2025)
Read-outs that look alike come from different tables or passages of the source.

Columns and labels:
Assay in all cases: DSF 100 kinase selectivity screen;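 note: compound tested at 20 µM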
Assay type in all cases: binding
[1] = molecular target: T1, ~100 representative kinases (Homo sapiens, UniProt O75582); conditions: Protein RPS6KA5; DSF; average of three replicates
T1 construct: Recombinant protein kinase domains with a concentration of 2 μM
In short: (§1)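 Each kinase domain, at 2 μM, is mixed with 20 μM test compound and SYPRO Orange in Hepes (20 mM, pH 7.5) with 500 mM NaCl. Temperature is then raised at 3°C/min and fluorescence-monitored unfolding yields the melting temperature change, ΔTm in degrees Celsius.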

[2] = molecular target: T2, ~100 representative kinases (Homo sapiens, UniProt O95747); conditions: protein OSR1; average of three replicates
T2 construct: Recombinant protein kinase domains with a concentration of 2 μM
In short: as §1

[3] = molecular target: T3, ~100 representative kinases (Homo sapiens, UniProt O96017); conditions: Protein CHEK2; average of three replicates
T3 construct: Recombinant protein kinase domains with a concentration of 2 μM
In short: as §1

[4] = molecular target: T4, ~100 representative kinases (Homo sapiens, UniProt P15735); conditions: protein PHKG2; average of three replicates
T4 construct: Recombinant protein kinase domains with a concentration of 2 μM
T4 sequence (P15735 1-406): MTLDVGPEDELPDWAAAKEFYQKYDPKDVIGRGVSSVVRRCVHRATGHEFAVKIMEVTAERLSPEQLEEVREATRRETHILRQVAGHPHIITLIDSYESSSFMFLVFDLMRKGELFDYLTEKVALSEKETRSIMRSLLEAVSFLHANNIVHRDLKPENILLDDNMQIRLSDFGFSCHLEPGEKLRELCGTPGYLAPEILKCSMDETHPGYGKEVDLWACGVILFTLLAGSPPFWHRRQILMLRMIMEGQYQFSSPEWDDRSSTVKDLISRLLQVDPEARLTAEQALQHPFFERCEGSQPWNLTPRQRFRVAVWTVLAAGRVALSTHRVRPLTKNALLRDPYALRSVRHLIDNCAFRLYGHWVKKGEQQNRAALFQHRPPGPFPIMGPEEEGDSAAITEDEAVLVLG
In short: as §1

[5] = molecular target: T5, ~100 representative kinases (Homo sapiens, UniProt P19784); conditions: Protein CK2A2; average of three replicates
T5 construct: Recombinant protein kinase domains with a concentration of 2 μM
In short: as §1

[6] = molecular target: T6, ~100 representative kinases (Homo sapiens, UniProt P49137); conditions: protein MAPKAPK2; average of three replicates
T6 construct: Recombinant protein kinase domains with a concentration of 2 μM
In short: as §1

[7] = molecular target: T7, ~100 representative kinases (Homo sapiens, UniProt P52564); conditions: protein MAP2K6; average of three replicates
T7 construct: Recombinant protein kinase domains with a concentration of 2 μM
T7 sequence (P52564 1-334): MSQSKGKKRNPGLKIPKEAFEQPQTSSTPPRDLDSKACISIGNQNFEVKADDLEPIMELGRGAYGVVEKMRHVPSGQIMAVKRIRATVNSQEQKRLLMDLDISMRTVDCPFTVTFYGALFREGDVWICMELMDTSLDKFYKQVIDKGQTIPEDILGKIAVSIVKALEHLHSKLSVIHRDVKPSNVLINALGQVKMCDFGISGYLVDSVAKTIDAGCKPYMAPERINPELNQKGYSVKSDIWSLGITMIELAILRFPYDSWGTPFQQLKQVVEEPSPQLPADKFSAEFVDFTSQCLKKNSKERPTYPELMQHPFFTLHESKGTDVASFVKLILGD
In short: as §1

[8] = molecular target: T8, ~100 representative kinases (Homo sapiens, UniProt P54756); conditions: Protein EPHA5; average of three replicates
T8 construct: Recombinant protein kinase domains with a concentration of 2 μM
In short: as §1

[9] = molecular target: T9, ~100 representative kinases (Homo sapiens, UniProt Q13153); conditions: protein PAK1; average of three replicates
T9 construct: Recombinant protein kinase domains with a concentration of 2 μM
In short: as §1

[10] = molecular target: T10, ~100 representative kinases (Homo sapiens, UniProt Q13873); conditions: Protein BMPR2; average of three replicates
T10 construct: Recombinant protein kinase domains with a concentration of 2 μM
T10 sequence (Q13873 27-1038): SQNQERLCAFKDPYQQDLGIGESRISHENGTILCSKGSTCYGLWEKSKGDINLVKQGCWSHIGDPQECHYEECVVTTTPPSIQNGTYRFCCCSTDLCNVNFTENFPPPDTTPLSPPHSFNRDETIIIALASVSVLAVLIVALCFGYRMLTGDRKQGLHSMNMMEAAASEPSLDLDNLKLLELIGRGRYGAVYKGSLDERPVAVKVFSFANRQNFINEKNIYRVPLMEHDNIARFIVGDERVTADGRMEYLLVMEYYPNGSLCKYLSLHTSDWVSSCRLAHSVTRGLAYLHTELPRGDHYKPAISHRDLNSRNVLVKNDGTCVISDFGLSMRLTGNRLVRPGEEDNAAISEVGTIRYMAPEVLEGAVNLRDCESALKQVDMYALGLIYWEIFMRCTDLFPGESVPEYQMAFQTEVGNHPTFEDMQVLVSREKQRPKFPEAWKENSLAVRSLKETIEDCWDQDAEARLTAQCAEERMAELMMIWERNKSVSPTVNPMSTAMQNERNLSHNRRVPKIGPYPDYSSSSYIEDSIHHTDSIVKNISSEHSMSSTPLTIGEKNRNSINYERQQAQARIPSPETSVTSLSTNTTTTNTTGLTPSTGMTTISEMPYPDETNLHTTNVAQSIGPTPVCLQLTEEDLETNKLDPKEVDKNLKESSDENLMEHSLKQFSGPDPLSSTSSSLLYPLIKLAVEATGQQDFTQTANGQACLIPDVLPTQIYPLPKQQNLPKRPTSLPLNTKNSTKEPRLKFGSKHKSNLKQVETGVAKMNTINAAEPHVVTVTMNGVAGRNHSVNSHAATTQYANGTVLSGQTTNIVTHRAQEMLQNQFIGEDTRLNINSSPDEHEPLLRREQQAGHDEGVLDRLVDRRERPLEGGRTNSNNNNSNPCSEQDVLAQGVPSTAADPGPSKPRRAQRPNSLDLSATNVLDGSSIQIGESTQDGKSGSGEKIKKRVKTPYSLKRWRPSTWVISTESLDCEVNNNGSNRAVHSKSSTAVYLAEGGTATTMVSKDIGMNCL
In short: as §1

[11] = molecular target: T11, ~100 representative kinases (Homo sapiens, UniProt Q16539)
T11 construct: Recombinant protein kinase domains with a concentration of 2 μM
In short: as §1

[12] = molecular target: T12, ~100 representative kinases (Homo sapiens, UniProt Q9UEW8); conditions: Protein STK39; DSF; average of three replicates
T12 construct: Recombinant protein kinase domains with a concentration of 2 μM
In short: as §1

[13] = molecular target: T13, ~100 representative kinases (Homo sapiens, UniProt Q9Y243); conditions: Protein AKT3; average of three replicates
T13 construct: Recombinant protein kinase domains with a concentration of 2 μM
In short: as §1

[14] = protein MAPK14, average of three replicates

T6 sequence (P49137 whole entry, the tested form may be a part): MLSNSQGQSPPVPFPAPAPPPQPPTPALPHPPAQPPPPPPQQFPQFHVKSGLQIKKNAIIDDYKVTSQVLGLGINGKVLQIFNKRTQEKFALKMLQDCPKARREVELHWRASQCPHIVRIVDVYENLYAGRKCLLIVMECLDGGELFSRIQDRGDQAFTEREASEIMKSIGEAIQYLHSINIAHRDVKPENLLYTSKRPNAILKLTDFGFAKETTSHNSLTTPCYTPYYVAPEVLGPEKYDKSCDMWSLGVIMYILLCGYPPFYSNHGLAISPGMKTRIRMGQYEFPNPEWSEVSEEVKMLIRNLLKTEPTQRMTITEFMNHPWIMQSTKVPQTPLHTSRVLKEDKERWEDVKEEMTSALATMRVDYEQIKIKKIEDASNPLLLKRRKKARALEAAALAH
T2 sequence (O95747 whole entry, the tested form may be a part): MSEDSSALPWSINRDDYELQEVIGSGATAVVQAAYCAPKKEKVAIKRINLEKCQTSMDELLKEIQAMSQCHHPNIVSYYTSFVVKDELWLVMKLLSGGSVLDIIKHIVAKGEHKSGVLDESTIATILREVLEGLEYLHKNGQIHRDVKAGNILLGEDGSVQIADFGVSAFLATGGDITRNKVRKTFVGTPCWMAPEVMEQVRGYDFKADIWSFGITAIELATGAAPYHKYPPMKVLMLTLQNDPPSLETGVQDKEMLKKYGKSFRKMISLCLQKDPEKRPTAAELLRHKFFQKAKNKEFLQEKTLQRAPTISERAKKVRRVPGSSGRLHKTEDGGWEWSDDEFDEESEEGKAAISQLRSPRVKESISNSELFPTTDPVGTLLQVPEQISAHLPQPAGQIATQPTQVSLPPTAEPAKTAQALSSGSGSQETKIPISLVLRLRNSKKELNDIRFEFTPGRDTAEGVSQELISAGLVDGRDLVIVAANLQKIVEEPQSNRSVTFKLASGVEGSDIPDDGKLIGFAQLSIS
T9 sequence (Q13153 whole entry, the tested form may be a part): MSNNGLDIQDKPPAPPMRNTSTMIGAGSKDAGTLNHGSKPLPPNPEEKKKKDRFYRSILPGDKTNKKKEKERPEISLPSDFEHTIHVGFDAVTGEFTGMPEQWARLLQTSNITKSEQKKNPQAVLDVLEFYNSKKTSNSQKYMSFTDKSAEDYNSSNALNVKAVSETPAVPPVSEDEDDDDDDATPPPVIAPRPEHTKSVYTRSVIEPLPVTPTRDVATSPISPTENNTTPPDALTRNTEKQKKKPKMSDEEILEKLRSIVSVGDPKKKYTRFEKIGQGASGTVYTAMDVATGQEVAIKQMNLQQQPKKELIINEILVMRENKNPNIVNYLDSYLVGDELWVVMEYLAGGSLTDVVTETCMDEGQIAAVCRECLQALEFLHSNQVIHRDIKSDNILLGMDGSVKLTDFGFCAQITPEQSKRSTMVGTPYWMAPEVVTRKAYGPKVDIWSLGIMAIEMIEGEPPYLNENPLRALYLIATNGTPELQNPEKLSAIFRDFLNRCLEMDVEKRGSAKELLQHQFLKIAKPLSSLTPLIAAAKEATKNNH
T5 sequence (P19784 whole entry, the tested form may be a part): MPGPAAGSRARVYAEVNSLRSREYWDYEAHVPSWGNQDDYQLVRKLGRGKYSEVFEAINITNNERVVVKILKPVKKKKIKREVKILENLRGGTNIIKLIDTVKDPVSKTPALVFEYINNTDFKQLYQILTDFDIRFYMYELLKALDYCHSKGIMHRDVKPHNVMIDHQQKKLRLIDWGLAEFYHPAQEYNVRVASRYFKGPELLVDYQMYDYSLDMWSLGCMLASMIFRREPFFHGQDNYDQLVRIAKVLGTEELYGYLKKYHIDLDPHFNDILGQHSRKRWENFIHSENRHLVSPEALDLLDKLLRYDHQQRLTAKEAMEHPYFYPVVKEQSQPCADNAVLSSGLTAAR
T8 sequence (P54756 25-1037): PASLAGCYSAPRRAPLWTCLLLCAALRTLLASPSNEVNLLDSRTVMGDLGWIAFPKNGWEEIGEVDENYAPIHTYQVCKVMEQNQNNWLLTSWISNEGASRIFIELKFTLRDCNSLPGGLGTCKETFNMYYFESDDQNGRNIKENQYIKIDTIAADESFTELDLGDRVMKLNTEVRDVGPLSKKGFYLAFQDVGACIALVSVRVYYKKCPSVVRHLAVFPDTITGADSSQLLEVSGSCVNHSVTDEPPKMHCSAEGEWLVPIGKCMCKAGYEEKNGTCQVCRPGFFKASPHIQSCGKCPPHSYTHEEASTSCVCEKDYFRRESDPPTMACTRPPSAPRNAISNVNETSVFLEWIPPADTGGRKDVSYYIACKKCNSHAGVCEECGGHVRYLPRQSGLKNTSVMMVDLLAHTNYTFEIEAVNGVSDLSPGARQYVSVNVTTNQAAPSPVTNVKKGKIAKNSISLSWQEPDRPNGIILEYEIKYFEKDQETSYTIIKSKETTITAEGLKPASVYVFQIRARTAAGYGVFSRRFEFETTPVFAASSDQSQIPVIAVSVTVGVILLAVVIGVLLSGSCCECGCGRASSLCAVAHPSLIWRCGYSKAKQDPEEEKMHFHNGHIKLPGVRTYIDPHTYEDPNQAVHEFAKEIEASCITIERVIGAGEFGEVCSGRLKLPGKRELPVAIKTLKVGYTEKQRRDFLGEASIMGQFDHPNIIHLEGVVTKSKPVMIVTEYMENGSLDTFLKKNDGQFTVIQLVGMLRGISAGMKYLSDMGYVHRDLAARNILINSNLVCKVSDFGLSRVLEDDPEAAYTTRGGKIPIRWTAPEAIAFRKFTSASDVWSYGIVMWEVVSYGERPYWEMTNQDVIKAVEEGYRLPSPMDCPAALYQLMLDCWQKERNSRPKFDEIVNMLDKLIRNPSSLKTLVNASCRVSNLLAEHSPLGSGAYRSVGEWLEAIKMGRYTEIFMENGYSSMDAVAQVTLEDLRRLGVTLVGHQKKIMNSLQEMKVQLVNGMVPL
T3 sequence (O96017 whole entry, the tested form may be a part): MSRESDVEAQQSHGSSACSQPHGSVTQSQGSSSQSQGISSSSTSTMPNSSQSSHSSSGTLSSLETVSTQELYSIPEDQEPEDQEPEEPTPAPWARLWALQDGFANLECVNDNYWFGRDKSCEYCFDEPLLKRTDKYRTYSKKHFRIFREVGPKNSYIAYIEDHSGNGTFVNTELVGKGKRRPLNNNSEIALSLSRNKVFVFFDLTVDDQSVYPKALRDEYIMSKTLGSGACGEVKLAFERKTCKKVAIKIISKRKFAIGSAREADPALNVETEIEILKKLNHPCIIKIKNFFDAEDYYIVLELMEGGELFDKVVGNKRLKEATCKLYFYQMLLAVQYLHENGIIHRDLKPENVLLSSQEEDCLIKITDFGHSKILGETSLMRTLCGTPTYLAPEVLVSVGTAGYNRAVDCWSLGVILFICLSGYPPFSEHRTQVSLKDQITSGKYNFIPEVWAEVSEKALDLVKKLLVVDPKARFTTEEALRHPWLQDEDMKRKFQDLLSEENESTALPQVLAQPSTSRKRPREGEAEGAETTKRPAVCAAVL
T1 sequence (O75582 whole entry, the tested form may be a part): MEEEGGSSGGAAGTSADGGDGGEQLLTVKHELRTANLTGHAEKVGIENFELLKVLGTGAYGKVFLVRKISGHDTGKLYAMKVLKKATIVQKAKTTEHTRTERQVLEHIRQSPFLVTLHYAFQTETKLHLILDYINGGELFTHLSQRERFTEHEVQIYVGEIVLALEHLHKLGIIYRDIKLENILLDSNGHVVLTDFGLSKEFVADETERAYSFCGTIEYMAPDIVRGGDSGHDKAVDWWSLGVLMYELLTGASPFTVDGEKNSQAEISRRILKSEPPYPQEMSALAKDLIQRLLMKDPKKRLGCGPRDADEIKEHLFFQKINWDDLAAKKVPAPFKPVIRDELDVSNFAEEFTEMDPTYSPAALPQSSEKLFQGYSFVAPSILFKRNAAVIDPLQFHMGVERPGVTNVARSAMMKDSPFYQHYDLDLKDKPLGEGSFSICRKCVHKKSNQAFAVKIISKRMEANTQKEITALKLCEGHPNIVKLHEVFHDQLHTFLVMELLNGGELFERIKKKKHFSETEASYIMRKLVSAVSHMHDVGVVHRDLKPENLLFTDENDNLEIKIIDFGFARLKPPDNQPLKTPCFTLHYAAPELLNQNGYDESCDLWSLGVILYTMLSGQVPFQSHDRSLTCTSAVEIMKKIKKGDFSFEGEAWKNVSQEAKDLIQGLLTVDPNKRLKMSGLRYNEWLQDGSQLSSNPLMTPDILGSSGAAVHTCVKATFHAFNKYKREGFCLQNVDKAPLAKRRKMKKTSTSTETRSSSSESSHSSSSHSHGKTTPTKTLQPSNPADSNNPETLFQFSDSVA
T13 sequence (Q9Y243 whole entry, the tested form may be a part): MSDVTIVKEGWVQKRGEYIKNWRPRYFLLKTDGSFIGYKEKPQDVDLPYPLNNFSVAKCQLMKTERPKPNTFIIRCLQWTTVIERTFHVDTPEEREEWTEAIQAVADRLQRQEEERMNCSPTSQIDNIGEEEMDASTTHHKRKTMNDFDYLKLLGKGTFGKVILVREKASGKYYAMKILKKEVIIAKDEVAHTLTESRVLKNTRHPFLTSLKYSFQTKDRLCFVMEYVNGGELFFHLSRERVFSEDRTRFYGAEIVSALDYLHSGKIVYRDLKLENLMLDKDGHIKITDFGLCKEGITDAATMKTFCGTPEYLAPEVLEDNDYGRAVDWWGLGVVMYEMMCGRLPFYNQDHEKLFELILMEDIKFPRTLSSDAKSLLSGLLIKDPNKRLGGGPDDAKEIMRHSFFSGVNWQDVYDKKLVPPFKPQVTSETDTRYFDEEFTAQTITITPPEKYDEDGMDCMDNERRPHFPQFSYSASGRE
T11 sequence (Q16539 whole entry, the tested form may be a part): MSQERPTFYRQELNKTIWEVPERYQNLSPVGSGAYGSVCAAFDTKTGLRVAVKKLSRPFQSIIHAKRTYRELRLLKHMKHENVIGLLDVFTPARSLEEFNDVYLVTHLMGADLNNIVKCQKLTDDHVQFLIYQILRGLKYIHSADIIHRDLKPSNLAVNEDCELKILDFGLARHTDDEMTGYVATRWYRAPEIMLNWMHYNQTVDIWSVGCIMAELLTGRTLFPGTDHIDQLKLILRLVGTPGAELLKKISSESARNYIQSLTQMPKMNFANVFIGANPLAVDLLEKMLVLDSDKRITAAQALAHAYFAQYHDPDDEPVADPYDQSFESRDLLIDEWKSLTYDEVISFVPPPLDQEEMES

| Structure (SMILES) | dTm [1] [K] | dTm [2] [K] | dTm [3] [K] | dTm [4] [K] | dTm [5] [K] | dTm [6] [K] | dTm [7] [K] | dTm [8] [K] | dTm [9] [K] | dTm [10] [K] | dTm [11, 14] [K] | dTm [12] [K] | dTm [13] [K] | dTm [11] [K] |
| --- | --- | --- | --- | --- | --- | --- | --- | --- | --- | --- | --- | --- | --- | --- |
| CCSc1nc(NC)c2c(-c3cccc(NC(=O)Nc4cc(C(C)(C)C)nn4-c4ccc(C)cc4)c3)c[nH]c2n1 [Compound 32] | 0.23 | -0.46 | 3.19 | -0.14 | -0.62 | 0.11 | 0.13 | 0.04 | -0.13 | 0.45 | 5.12 | 0.77 | 0.30 | – |
| O=C(Nc1ccc(F)cc1)C1(C(=O)Nc2cccc(-c3c[nH]c4ncnc(N5CCOCC5)c34)c2)CC1 [Compound 2] | 4.64 | 1.55 | 4.13 | 2.27 | 6.40 | -0.40 | 2.20 | 3.27 | 2.06 | 0.92 | 0.08 | 1.95 | 0.65 | – |
| COc1cc(NC(=O)C2(C(=O)Nc3cccc(-c4c[nH]c5ncnc(N6CCOCC6)c45)c3)CC2)ccc1F [Compound 21] | 4.31 | 1.79 | 4.32 | 0.25 | 3.16 | -0.29 | 3.07 | 0.44 | 4.31 | 0.78 | 0.76 | 1.92 | 0.58 | – |
| O=C(Nc1cccc(-c2c[nH]c3ncnc(N4CCOCC4)c23)c1)c1cccn(-c2ccc(F)cc2)c1=O [Compound 4] | -0.28 | 1.98 | 3.03 | 0.20 | -5.10 | -0.41 | 2.38 | 3.25 | 4.33 | 0.82 | 1.17 | 4.19 | -0.17 | – |
| CCc1ccc(NC(=O)C2(C(=O)Nc3cccc(-c4c[nH]c5ncnc(N6CCOCC6)c45)c3)CC2)cc1 [Compound 15] | 2.22 | 0.69 | 6.14 | 0.76 | 1.24 | 0.05 | 2.06 | 2.15 | 1.40 | 0.80 | 0.36 | 1.18 | -0.80 | – |
| COc1cc2c(Oc3ccc(NC(=O)C4(C(=O)Nc5ccc(F)cc5)CC4)cc3F)ccnc2cc1OCCCN1CCOCC1 [Foretinib, reference compound] | 0.57 | -0.48 | 18.83 | 1.61 | 0.00 | 0.33 | 2.25 | 11.59 | 1.69 | 0.59 | – | 0.70 | -0.34 | 6.85 |

The next lines start with results.

| dTm [1] [K] | dTm [2] [K] | dTm [3] [K] | dTm [4] [K] | dTm [5] [K] | dTm [6] [K] | dTm [7] [K] | dTm [8] [K] | dTm [9] [K] | dTm [10] [K] | dTm [11, 14] [K] | dTm [12] [K] | dTm [13] [K] | Structure (SMILES) | dTm [11] [K] |
| --- | --- | --- | --- | --- | --- | --- | --- | --- | --- | --- | --- | --- | --- | --- |
| 1.50 | 4.04 | 3.64 | -0.10 | 2.45 | -0.67 | 1.77 | 2.41 | 3.87 | 0.10 | 0.60 | 3.92 | 0.15 | CC(C)(C)c1cccc(NC(=O)C2(C(=O)Nc3cccc(-c4c[nH]c5ncnc(N6CCOCC6)c45)c3)CC2)c1 [Compound 22] | – |
| 11.96 | 0.52 | 12.51 | 2.17 | -2.10 | -0.55 | 2.48 | 6.71 | 3.58 | 0.97 | 5.90 | 6.45 | 0.14 | Cc1ccc(-n2nc(C(C)(C)C)cc2NC(=O)Nc2cccc(-c3c[nH]c4ncnc(N5CCOCC5)c34)c2)cc1 [Compound 29] | – |
| 0.35 | 0.13 | 2.02 | 0.58 | 1.70 | 0.00186 | 3.34 | 1.57 | 0.67 | 0.20 | 2.03 | -0.03 | -0.48 | O=C(Nc1cccc(-c2c[nH]c3ncnc(N4CCOCC4)c23)c1)C1(C(=O)Nc2cc(Br)c(F)cc2F)CC1 [Compound 25] | – |
| 8.01 | -2.10 | 5.59 | -0.72 | -3.51 | -0.40 | 0.27 | 1.56 | 0.00835 | 0.38 | 3.92 | 1.08 | -0.49 | CC(=O)N1CCN(c2nc(Cl)nc3[nH]cc(-c4cccc(NC(=O)Nc5cc(C(C)(C)C)nn5-c5ccc(C)cc5)c4)c23)CC1 [Compound 31] | – |
| -0.55 | -0.0329 | 2.81 | 0.60 | 4.72 | -1.06 | 2.03 | 1.29 | 2.69 | 0.05 | 2.01 | 0.00 | -0.00683 | O=C(Nc1cccc(-c2c[nH]c3ncnc(N4CCOCC4)c23)c1)C1(C(=O)Nc2ccc(F)c(Br)c2F)CC1 [Compound 26] | – |
